The values that follow come from ChEMBL document CHEMBL1148545, “New metabolically stable fatty acid amide ligands of cannabinoid receptors: Synthesis and receptor affinity studies” (Bioorg Med Chem Lett, 2006).

The target in test [1] is T1, Cannabinoid receptor 1 (Homo sapiens, UniProt P21554). Nature of the test: Displacement of [3H]CP-55940 from human recombinant CB1 receptor.
The target of another test is Cannabinoid receptor 2 (Homo sapiens, UniProt P34972). Nature of the test: Displacement of [3H]CP-55940 from human recombinant CB2 receptor. (Displacement assays read how much labelled ligand stays bound in the presence of the test substance.)
Test [2] concerns the target T1, Cannabinoid receptor 1. Nature of the test: Displacement of [3H]CP-55940 from human recombinant CB1 receptor in presence of hydrolase inhibitor PMSF.
Test [3] addresses T2, Fatty-acid amide hydrolase 1 (Rattus norvegicus, UniProt P97612).
T2 sequence (P97612 whole entry): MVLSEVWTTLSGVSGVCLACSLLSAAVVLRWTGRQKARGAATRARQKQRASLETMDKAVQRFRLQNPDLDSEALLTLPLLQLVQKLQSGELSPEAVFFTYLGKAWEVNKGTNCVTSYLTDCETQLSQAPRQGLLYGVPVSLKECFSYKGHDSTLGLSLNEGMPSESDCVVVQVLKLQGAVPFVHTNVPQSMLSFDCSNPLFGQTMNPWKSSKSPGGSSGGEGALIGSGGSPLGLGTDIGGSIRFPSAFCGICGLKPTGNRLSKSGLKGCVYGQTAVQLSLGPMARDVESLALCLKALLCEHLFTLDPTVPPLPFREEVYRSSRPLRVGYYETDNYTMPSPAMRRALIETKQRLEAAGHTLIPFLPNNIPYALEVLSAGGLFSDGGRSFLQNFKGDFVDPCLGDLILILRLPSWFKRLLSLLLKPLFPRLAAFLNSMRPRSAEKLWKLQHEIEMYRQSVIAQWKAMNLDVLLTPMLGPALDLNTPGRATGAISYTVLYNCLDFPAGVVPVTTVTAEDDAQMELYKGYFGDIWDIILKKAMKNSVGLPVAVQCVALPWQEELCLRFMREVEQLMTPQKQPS
Nature of the test: Inhibitory activity against rat brain FAAH by [14C]anandamide hydrolysis.

As usually defined, the Ki is a measure of affinity in units of concentration, obtained from inhibition or displacement. What is called IC50 is the concentration that inhibits the measured activity by half.

Chain of Cannabinoid receptor 2 (P34972 whole entry): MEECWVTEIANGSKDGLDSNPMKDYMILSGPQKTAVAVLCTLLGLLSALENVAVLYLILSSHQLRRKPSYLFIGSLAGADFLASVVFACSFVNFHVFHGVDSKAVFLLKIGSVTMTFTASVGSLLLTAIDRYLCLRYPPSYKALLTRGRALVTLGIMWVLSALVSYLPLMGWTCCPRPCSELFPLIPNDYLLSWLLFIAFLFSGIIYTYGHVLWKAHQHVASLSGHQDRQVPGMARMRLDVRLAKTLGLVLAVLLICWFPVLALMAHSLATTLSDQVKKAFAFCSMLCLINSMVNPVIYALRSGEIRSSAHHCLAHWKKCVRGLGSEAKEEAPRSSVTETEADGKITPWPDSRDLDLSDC
T1 sequence (P21554 whole entry): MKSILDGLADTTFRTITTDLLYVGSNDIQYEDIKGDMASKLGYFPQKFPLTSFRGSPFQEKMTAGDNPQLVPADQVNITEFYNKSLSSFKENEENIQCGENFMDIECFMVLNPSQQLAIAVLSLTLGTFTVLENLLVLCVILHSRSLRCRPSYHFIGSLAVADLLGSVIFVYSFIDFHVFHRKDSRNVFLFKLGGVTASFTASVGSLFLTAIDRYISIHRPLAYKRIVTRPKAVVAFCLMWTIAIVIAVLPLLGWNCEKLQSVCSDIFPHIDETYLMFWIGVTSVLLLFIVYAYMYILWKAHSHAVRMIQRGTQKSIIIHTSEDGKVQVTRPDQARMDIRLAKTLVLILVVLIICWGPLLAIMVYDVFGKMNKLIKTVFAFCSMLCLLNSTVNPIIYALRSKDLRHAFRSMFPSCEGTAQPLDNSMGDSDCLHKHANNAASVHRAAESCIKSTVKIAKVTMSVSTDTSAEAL

With `CCCCC/C=C\C/C=C\C/C=C\C/C=C\CCCC(=O)NCc1ccc(OC)cc1OC`, the Ki on Cannabinoid receptor 1 [1] amounted to 200 nM; at Cannabinoid receptor 2, 4 µM; on Cannabinoid receptor 1 [2], 200 nM. In test [3], this compound registered a half-inhibitory concentration (IC50) of more than 25 µM.
With `CCCCC/C=C\C/C=C\C/C=C\C/C=C\CCCC(=O)N1CCN(c2ccc(Cl)cc2)CC1`, the results for the Ki at Cannabinoid receptor 1 [1] and on Cannabinoid receptor 2 were 600 nM and more than 10 µM, respectively.
Consider `CCCCC/C=C\C/C=C\C/C=C\C/C=C\CCCC(=O)NCc1ccc(OC)cc1`, for which the Ki on Cannabinoid receptor 1 [1] is 600 nM; on Cannabinoid receptor 2 it was 4.5 µM.
For `CCCCCCCC/C=C/C(=O)Nc1ccc(OC)cc1`, the Ki on Cannabinoid receptor 2 was found to be 2.5 µM.
Consider `CCCCCCCC/C=C/C(=O)NCCc1ccc(OC)cc1`, for which the Ki on Cannabinoid receptor 2 was found to be 5.1 µM.
In the case of `C=CCCCCCCCCC(=O)NCCc1ccc(OC)cc1OC`, the Ki is more than 10000 nM at Cannabinoid receptor 1 [1] and more than 10 µM on Cannabinoid receptor 2.
In the case of `CCCCCCCC/C=C\CCCCCCCC(=O)NCCc1cc(OC)cc(OC)c1`, the values for the inhibitory constant (Ki) on Cannabinoid receptor 1 [1], at Cannabinoid receptor 2 and at Cannabinoid receptor 1 [2] were 1300 nM, more than 10 µM and 1000 nM, respectively. For the same compound, the IC50 in test [3] was more than 25 µM.
In the case of `CCCCCCCC/C=C\CCCCCCCC(=O)NCCc1ccc(OC)cc1OC`, the figures for the Ki on Cannabinoid receptor 1 [1], on Cannabinoid receptor 2 and at Cannabinoid receptor 1 [2] were 800 nM, more than 10 µM and 600 nM, respectively. The IC50 in test [3] is more than 25 µM.
Turning to `CCCCCCCC/C=C\CCCCCCCC(=O)NCCc1ccc(OC)cc1`, the Ki at Cannabinoid receptor 1 [1] is 400 nM; at Cannabinoid receptor 2, more than 10 µM; at Cannabinoid receptor 1 [2], 300 nM. Further, the 50% inhibitory concentration (IC50) in test [3] is more than 25 µM.
Turning to `CCCCCCCC/C=C/C(=O)NCc1ccc(OC)cc1`, the results for the Ki at Cannabinoid receptor 1 [1] and at Cannabinoid receptor 2 were more than 10000 nM and more than 10 µM, respectively.
Consider `CCCCCCCC/C=C\CCCCCCCCCCCC(=O)NCCc1ccc(OC)cc1`, for which the Ki at Cannabinoid receptor 1 [1] is more than 10000 nM; on Cannabinoid receptor 2, more than 10 µM.
For the compound `C=CCCCCCCCCC(=O)Nc1ccc(N2CCOCC2)cc1`, the Ki on Cannabinoid receptor 1 [1] was more than 10000 nM; at Cannabinoid receptor 2 it was more than 10 µM.
As for `CCCCCCCC/C=C\CCCCCCCCCCCC(=O)NCCc1cc(OC)cc(OC)c1`, the Ki at Cannabinoid receptor 1 [1] was 5400 nM; at Cannabinoid receptor 2, more than 10 µM.
Turning to `CCCCC/C=C\C/C=C\C/C=C\C/C=C\CCCC(=O)Nc1ccc(N2CCOCC2)cc1`, the Ki is 150 nM on Cannabinoid receptor 1 [1], 4.3 µM on Cannabinoid receptor 2 and 150 nM at Cannabinoid receptor 1 [2]. The compound further showed a concentration for half-maximal inhibition (IC50) in test [3] of more than 25 µM.
With `CCCCCCCC/C=C\CCCCCCCCCCCC(=O)Nc1ccc(N2CCOCC2)cc1`, the Ki is 6400 nM on Cannabinoid receptor 1 [1] and more than 10 µM at Cannabinoid receptor 2.
As for `CCCCCCCC/C=C\CCCCCCCC(=O)Nc1ccc(OC)cc1`, the Ki was 1600 nM on Cannabinoid receptor 1 [1], more than 10 µM at Cannabinoid receptor 2 and 1500 nM at Cannabinoid receptor 1 [2]. This compound also returned an IC50 in test [3] of more than 25 µM.
Consider `CCCCC/C=C\C/C=C\C/C=C\C/C=C\CCCC(=O)N1CCN(c2ccc(F)cc2)CC1`, for which the Ki at Cannabinoid receptor 1 [1] came out at 300 nM; on Cannabinoid receptor 2, 5.1 µM; on Cannabinoid receptor 1 [2], 300 nM. Besides, in test [3], the IC50 is more than 25 µM.
`CCCCCCCC/C=C/C(=O)NCCc1ccc(OC)cc1OC`: the Ki on Cannabinoid receptor 1 [1] was more than 10000 nM; at Cannabinoid receptor 2, more than 10 µM.
Taken in the same sequence, the figures for `CCCCC/C=C\C/C=C\C/C=C\C/C=C\CCCC(=O)Nc1ccc(OC)cc1` were 500 nM and 4 µM.
Regarding `CCCCCCCC/C=C\CCCCCCCCCCCC(=O)NCCc1ccc(OC)cc1OC`, the Ki at Cannabinoid receptor 1 [1] is 3700 nM; at Cannabinoid receptor 2, more than 10 µM.
For the compound `CCCCCCCC/C=C\CCCCCCCC(=O)Nc1ccc(N2CCOCC2)cc1`, the Ki on Cannabinoid receptor 1 [1] is more than 10000 nM; at Cannabinoid receptor 2 it was more than 10 µM.
`C=CCCCCCCCCC(=O)NCc1ccc(OC)cc1`: the Ki at Cannabinoid receptor 1 [1] was more than 10000 nM; on Cannabinoid receptor 2 it was more than 10 µM.
Taken in the same sequence, the figures for `CCCCCCCC/C=C/C(=O)Nc1ccc(N2CCOCC2)cc1` were more than 10000 nM and more than 10 µM.
Taken in the same sequence, the figures for `C=CCCCCCCCCC(=O)Nc1ccc(OC)cc1` were more than 10000 nM and more than 10 µM.
Regarding `C=CCCCCCCCCC(=O)NCCc1ccc(OC)cc1`, the Ki at Cannabinoid receptor 1 [1] was more than 10000 nM; on Cannabinoid receptor 2 it was more than 10 µM.
With `C=CCCCCCCCCC(=O)NCCc1cc(OC)cc(OC)c1`, the Ki is more than 10000 nM at Cannabinoid receptor 1 [1] and more than 10 µM at Cannabinoid receptor 2.
For the compound `CCCCC/C=C\C/C=C\C/C=C\C/C=C\CCCC(=O)NCCc1ccc(OC)cc1`, the Ki was 2400 nM at Cannabinoid receptor 1 [1] and more than 10 µM at Cannabinoid receptor 2.
`CCCCCCCC/C=C\CCCCCCCC(=O)NCc1ccc(OC)cc1`: the Ki at Cannabinoid receptor 1 [1] is 500 nM; on Cannabinoid receptor 2, more than 10 µM; on Cannabinoid receptor 1 [2], 600 nM. In addition, the IC50 in test [3] was more than 25 µM.
In the case of `CCCCCCCC/C=C/C(=O)NCCc1cc(OC)cc(OC)c1`, the Ki amounted to 2800 nM on Cannabinoid receptor 1 [1] and 5.2 µM on Cannabinoid receptor 2.
`CCCCC/C=C\C/C=C\C/C=C\C/C=C\CCCC(=O)N1CCN(c2ccc(C)c(C)c2)CC1`: the Ki at Cannabinoid receptor 1 [1] is 400 nM; on Cannabinoid receptor 2 it was 4.2 µM.
`CCCCC/C=C\C/C=C\C/C=C\C/C=C\CCCC(=O)NCc1cc(OC)ccc1OC`: the Ki was found to be 500 nM on Cannabinoid receptor 1 [1] and 4.1 µM on Cannabinoid receptor 2.
As to `CCCCC/C=C\C/C=C\C/C=C\C/C=C\CCCC(=O)NCCc1cc(OC)cc(OC)c1`, the Ki is more than 10000 nM on Cannabinoid receptor 1 [1] and more than 10 µM on Cannabinoid receptor 2.
For `CCCCC/C=C\C/C=C\C/C=C\C/C=C\CCCC(=O)Nc1ccc(O)cc1`, the Ki on Cannabinoid receptor 1 [1] is 1760 nM.
For `CCCCCCCC/C=C\CCCCCCCCCCCC(=O)NCc1ccc(OC)cc1`, the Ki at Cannabinoid receptor 1 [1] is more than 10000 nM; at Cannabinoid receptor 2, more than 10 µM.
As for `CCCCC/C=C\C/C=C\C/C=C\C/C=C\CCCC(=O)NCCc1ccc(OC)cc1OC`, the Ki was determined as 500 nM at Cannabinoid receptor 1 [1] and 4 µM on Cannabinoid receptor 2.
Take `CCCCCCCC/C=C\CCCCCCCCCCCC(=O)Nc1ccc(OC)cc1`: the results for the Ki on Cannabinoid receptor 1 [1] and on Cannabinoid receptor 2 were more than 10000 nM and more than 10 µM, respectively.
